Assay results as given in patent publication US20190208782A1, “PROCESSING COMPOSITION FOR C[…] WEEDS” (Arch Chemicals, Inc., priority 2018, published 2019).
≈ marks a conversion by molar mass, not a printed value.

Key:
water hyacinth = test: Fluroxypyr ester and four potassium salt formulations as foliar application on water hyacinth (Example 5); assay type: in vivo
Protocol: Materials and Methods: Water hyacinth was obtained from field locations in Mississippi and cultured in a 300 gallon tank outdoors. Water in the culture tank was amended with 30 mg/L Miracle-Gro fertilizer (14-8-16) every week to maintain plant growth. Once a sufficient density of water hyacinth had been achieved in the culture tank, rosettes of similar size were harvested and divided so that six to seven rosettes were placed into each of 33, 100 gallon treatment tanks. The treatment tanks were filled to a depth of 45 cm with water. Water was amended with 30 mg/L of Miracle-Gro fertilizer to maintain plant growth. Plants were allowed to grow until the water surface in each tank had been covered by water hyacinth.
After the growth period plants were treated as a foliar spray based on the formulations and rates in Table 7. The treatments contained the fluroxypyr herbicide in an amount of 15% by weight. Each surfactant was added in an amount of 10% by weight. The remainder of the formulation was distilled water. Treatments were applied using water as a carrier in a fine foliar spray at a total spray volume of 100 gal/acre using a CO2 pressurized backpack sprayer and single nozzle boom. AB Brand Adjuvant was included in the herbicide solution at a rate of 0.25% v:v.
After treatment, each tank was rated for percent control from 0 to 100% control every week for four weeks. At four weeks after treatment (WAT) a 0.1 m^2 PVC quadrat was used to harvest 1 biomass sample from each tank if living biomass was present. Biomass samples were placed into labeled paper bags, dried in a forced air oven at 50 C for five days, and then weighed to determine dry weight biomass (g/DW/m^2). Differences between treatments were analyzed using ANOVA and means separated using a Fisher's Protected LSD test. All analyses were conducted a p≤0.05 significance level.

[1] = tested on: Elodea (Elodea canadensis); test: Native plant selectivity screening in aquaria, elodea (Example 6); assay type: in vivo; details: static exposure; for Elodea biomass vs untreated reference plants: four WAT
Protocol: Materials and Methods: The study was conducted in an indoor aquaria facility. Elodea (Elodea canadensis) was obtained from cultures. Two apical tips approximately 10 cm long were planted into each of 48, plastic containers (16 oz. plastic cups). The containers were filled with potting soil and amended with 2 g/L Osmocote® fertilizer 19-6-12. A layer of sand was placed on top of the sediment in each container to prevent sediment re-suspension in the aquaria. Two containers of potted elodea were placed into each of 24 aquaria measuring 11.5 in×11.5 in×24 in. Additionally, sago pondweed (Stuckenia pectinata) tubers were obtained. The tubers were floated in shallow containers filled with water until new sprouts began to grow.
Once sprouted, two tubers were planted into 16 oz containers in a similar fashion as elodea. Two containers of potted sago pondweed were placed into each of the 24 aquaria, so that each aquarium had 4 potted plants (2 pots of each species). Each aquarium was filled to a volume of 45 L and plants allowed to grow approximately 3-4 weeks prior to herbicide treatments or until plants were at or near the water surface. Supplemental lighting was provided using Agrobrite growth lamps on a 12:12 light:dark cycle. After the plants reached the desired level of growth, a liquid formulation of fluroxypyr ester was applied as a concentrated aqueous solution at the concentrations outlined in Table 9. An untreated reference was also included for comparison purposes. All herbicide applications were made using a static exposure and replicated 3 times. […] Water was added to the aquaria as needed to maintain the desired 45 L volume of water.
At four weeks after treatment (WAT), plants were, harvested, sorted to aboveground biomass, dried in a forced air oven at 50 C for at least 48 h, and weighed for biomass determination (g/DW/aquaria). Differences between treatments were analyzed using an ANOVA, and if treatment differences were detected; means were separated using a Tukey's All-Pairwise comparison test. All analyses were conducted at a p≤0.05 significance level. Additionally, regression models were fit to elodea biomass data in order to estimate the EC50 concentration under the current experimental design.

CCCCCCC(C)OC(=O)COc1nc(F)c(Cl)c(N)c1Cl (stereo not shown) [Fluroxypyr ester, [(4-amino-3,5-dichloro-6-fluoro-2-pyridinyl)oxy]acetic acid, 1-methylheptyl ester]
efficacy on water hyacinth biomass relative to the other fluroxypyr treatments (water hyacinth; 4 WAT, Ester 8 oz/acre, potassium salt formulations 10 oz/acre, FIG. 6): not as efficacious as the other fluroxypyr treatments | Mean percent control ratings of water hyacinth (water hyacinth; 8 oz/acre foliar, 1 WAT): 20% | Mean percent control ratings of water hyacinth (water hyacinth; 8 oz/acre foliar, 2 WAT): 25% | Mean percent control ratings of water hyacinth (water hyacinth; 8 oz/acre foliar, 3 WAT): 55% | Mean percent control ratings of water hyacinth (water hyacinth; 8 oz/acre foliar, 4 WAT): 75% | Mean percent control ratings of water hyacinth (water hyacinth; 16 oz/acre foliar, 1 WAT): 20% | Mean percent control ratings of water hyacinth (water hyacinth; 16 oz/acre foliar, 2 WAT): 45% | Mean percent control ratings of water hyacinth (water hyacinth; 16 oz/acre foliar, 3 WAT): 85% | Mean percent control ratings of water hyacinth (water hyacinth; 16 oz/acre foliar, 4 WAT): 95% | Elodea biomass vs untreated reference plants ([1]; 400 ug/L or higher): reduced | Elodea biomass vs untreated reference plants ([1]; 50, 100, and 200 ug/L): similar | EC50 ([1]; Elodea canadensis, 4 WAT, aquaria, read-out: EC50 for elodea (biomass, regression model)): 0.356 µg/mL (≈ 0.969 µM) | herbicide symptoms on elodea ([1]; within one WAT, transient in the lower concentration treatments): epinastic twisting and bending
